# In patent US9920010B2, “CXCR7 receptor modulators” (IDORSIA PHARMACEUTICALS LTD, priority 2013, dated 2018):
# Molecular target: T1, CXCR7 (Homo sapiens, UniProt P25106)
# T1 construct: host or cells: CHO-K1 (PathHunter CHO-K1 CXCR7 b-arrestin cell line, stably transfected)
# Assay: PathHunter CHO-K1 CXCR7 b-arrestin recruitment assay (CXCR7 agonistic activity)
# Assay type: cell-based
# Details: PathHunter CHO-K1 CXCR7 b-arrestin cell line
# Procedure: The CXCl12 receptor and CXCR7 agonistic activities of the compounds of formula (I) are determined in accordance with the following experimental method.
# The assay is using the PathHunter™ CHO-K1 CXCR7 b-arrestin cell line from DiscoverX. The system is based on the Enzyme Fragment Complementation Technology. Two complementing fragments of the b-galactosidase enzyme are expressed within stably transfected cells. The larger portion of b-gal, termed EA for Enzyme Acceptor, is fused to the C-terminus of b-arrestin 2. The smaller fragment, termed ProLink™ tag, is fused to CXCR7 at the C-terminus. Upon activation, b-arrestin is recruited which forces the interaction of ProLink and EA, allowing complementation of the two fragments of b-gal and the formation of a functional enzyme which is capable of hydrolysing the substrate and generating a chemiluminescent signal.
# CHO-K1 CXCR7 b-arrestin cells are detached from culture dishes with a cell dissociation buffer (Invitrogen, #13151-014) and collected in growing medium (F12 HAMS 90% (v/v)/FCS 10% (v/v), Penicillin/streptomycin 1% (v/v)). 5000 cells per well (in 20 μl) are seeded in a 384 well plate (white-walled, clear bottom; BD Falcon #353274). The plate is incubated at 37° C./5% CO2 for 24 hours. Medium is then replaced by 20 μl OPTIMEM (Invitrogen #31985) for 3 to 4 hours. Test compounds are dissolved at 10 mM in DMSO and serially diluted in DMSO to 200× of the final concentration for dose response curves. Compounds are then diluted 1:33.3 in HBSS1×. 5 μl/well of HBSS1×/20 mM HEPES/0.2% BSA are added to the assay plate followed by addition of 5 μl/well of diluted compounds. CXCL12 (Peprotech #300-28A) may be used as a reference agonist. The plate is incubated for 90 minutes at 37° C. 12 μl of detection reagent (Path Hunter Detection Kit, DiscoveRx, #93-0001) is transferred to the assay plate and to the plate is incubated for 1 hour at room temperature. Luminescent signal is read in a microplate reader (FLUOstar Optima, bmg). The calculated EC50 values may fluctuate depending on the daily cellular assay performance. Fluctuations of this kind are known to those skilled in the art. Average EC50 values from several measurements are given as geometric mean values.
# T1 sequence (P25106 whole entry): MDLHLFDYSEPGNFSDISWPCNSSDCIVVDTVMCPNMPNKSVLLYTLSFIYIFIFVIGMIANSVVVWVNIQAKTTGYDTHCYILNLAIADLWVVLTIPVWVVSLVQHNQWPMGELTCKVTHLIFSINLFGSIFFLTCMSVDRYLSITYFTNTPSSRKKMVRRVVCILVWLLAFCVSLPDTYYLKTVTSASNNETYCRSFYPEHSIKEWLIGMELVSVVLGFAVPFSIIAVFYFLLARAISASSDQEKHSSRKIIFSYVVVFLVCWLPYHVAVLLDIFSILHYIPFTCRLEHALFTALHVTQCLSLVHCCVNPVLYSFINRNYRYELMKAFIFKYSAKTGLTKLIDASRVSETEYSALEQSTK
# T1 sequence (P32121 whole entry partner): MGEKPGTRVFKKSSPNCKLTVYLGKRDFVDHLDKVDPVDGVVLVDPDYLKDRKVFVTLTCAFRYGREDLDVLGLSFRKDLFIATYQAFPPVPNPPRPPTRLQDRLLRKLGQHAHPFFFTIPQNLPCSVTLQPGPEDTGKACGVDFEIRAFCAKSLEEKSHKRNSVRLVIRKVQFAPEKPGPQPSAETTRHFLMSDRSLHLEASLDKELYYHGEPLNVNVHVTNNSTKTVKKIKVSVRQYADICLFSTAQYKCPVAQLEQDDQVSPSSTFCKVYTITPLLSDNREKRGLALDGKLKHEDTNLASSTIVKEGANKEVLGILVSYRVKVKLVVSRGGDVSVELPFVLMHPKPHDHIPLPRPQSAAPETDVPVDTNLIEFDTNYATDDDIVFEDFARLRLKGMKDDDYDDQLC
row,Compound,EC50
1,"2-(2-Cyclopropylmethyl-1,2,3,4-tetrahydro-isoquinolin-5-ylamino)-N-(2-dimethylamino-ethyl)-N-pyridin-3-ylmethyl-acetamide [Example 263]",127 nM
2,"2-(2-Cyclopropylmethyl-1,2,3,4-tetrahydro-isoquinolin-5-ylamino)-N-isoxazol-5-ylmethyl-N-(2-trifluoromethyl-benzyl)-acetamide [Example 250]",31 nM
3,"CN1CCCC1CCN(Cc1ccccc1)C(=O)Cc1cccc2c1CCN(CC1CC1)C2 (racemic) [Example 4, rac-N-Benzyl-2-(2-cyclopropylmethyl-1,2,3,4-tetrahydro-isoquinolin-5-yl)-N-[2-(1-methyl-pyrrolidin-2-yl)-ethyl]-acetamide]",47 nM
4,"CN1CCCC(N(Cc2ccccc2C(F)(F)F)C(=O)CNc2cccc3c2CCN(C(=O)OC(C)(C)C)C3)C1 (racemic) [Example 11, rac-5-({[(1-Methyl-piperidin-3-yl)-(2-trifluoromethyl-benzyl)-carbamoyl]-methyl}-amino)-3,4-dihydro-1H-isoquinoline-2-carboxylic acid tert-butyl ester]",52 nM
5,"CCC(=O)N1CCc2c(cccc2NCC(=O)N(CCC2CCCN2C)Cc2ccccc2)C1 (racemic) [Example 32, rac-N-Benzyl-N-[2-(1-methyl-pyrrolidin-2-yl)-ethyl]-2-(2-propionyl-1,2,3,4-tetrahydro-isoquinolin-5-ylamino)-acetamide]",28 nM
6,"CN1CCCC1CCN(Cc1ccccc1)C(=O)CNc1cccc2c1CCN(CC1CC1)C2 (racemic) [Example 42, rac-N-Benzyl-2-(2-cyclopropylmethyl-1,2,3,4-tetrahydro-isoquinolin-5-ylamino)-N-[2-(1-methyl-pyrrolidin-2-yl)-ethyl]-acetamide]",5 nM
7,"CN1CCCC1CCN(CCc1ccccc1)C(=O)CNc1cccc2c1CCN(CC1CC1)C2 (racemic) [Example 49, rac-2-(2-Cyclopropylmethyl-1,2,3,4-tetrahydro-isoquinolin-5-ylamino)-N-[2-(1-methyl-pyrrolidin-2-yl)-ethyl]-N-phenethyl-acetamide]",16 nM
8,"CN1CCCC1CCN(CCCc1ccccc1)C(=O)CNc1cccc2c1CCN(CC1CC1)C2 (racemic) [Example 52, rac-2-(2-Cyclopropylmethyl-1,2,3,4-tetrahydro-isoquinolin-5-ylamino)-N-[2-(1-methyl-pyrrolidin-2-yl)-ethyl]-N-(3-phenyl-propyl)-acetamide]",17 nM
9,"CN1CCCC1CCN(C/C=C/c1ccccc1)C(=O)CNc1cccc2c1CCN(CC1CC1)C2 (racemic) [Example 53, rac-2-(2-Cyclopropylmethyl-1,2,3,4-tetrahydro-isoquinolin-5-ylamino)-N-[2-(1-methyl-pyrrolidin-2-yl)-ethyl]-N-((E)-3-phenyl-allyl)-acetamide]",23 nM
10,"CC(c1ccccc1C(F)(F)F)N(CCN(C)C)C(=O)CNc1cccc2c1CCN(CC1CC1)C2 (racemic) [Example 58, rac-2-(2-Cyclopropylmethyl-1,2,3,4-tetrahydro-isoquinolin-5-ylamino)-N-(2-dimethylamino-ethyl)-N-[1-(2-trifluoromethyl-phenyl)-ethyl]-acetamide]",16 nM
11,"C/C(=C\c1ccccc1)CN(CCC1CCCN1C)C(=O)CNc1cccc2c1CCN(CC1CC1)C2 (racemic) [Example 61, rac-2-(2-Cyclopropylmethyl-1,2,3,4-tetrahydro-isoquinolin-5-ylamino)-N-((E)-2-methyl-3-phenyl-allyl)-N-[2-(1-methyl-pyrrolidin-2-yl)-ethyl]-acetamide]",5 nM
12,"CC(C)(C)OC(=O)N1CCC(N(Cc2ccccc2)C(=O)CNc2cccc3c2CCN(CC2CC2)C3)C1 (racemic) [Example 65, rac-3-{Benzyl-[2-(2-cyclopropylmethyl-1,2,3,4-tetrahydro-isoquinolin-5-ylamino)-acetyl]-amino}-pyrrolidine-1-carboxylic acid tert-butyl ester]",150 nM
13,"O=C(CNc1cccc2c1CCN(CC1CC1)C2)N(Cc1ccccc1)C1CCS(=O)(=O)C1 (racemic) [Example 70, rac-N-Benzyl-2-(2-cyclopropylmethyl-1,2,3,4-tetrahydro-isoquinolin-5-ylamino)-N-(1,1-dioxo-tetrahydro-1|6-thiophen-3-yl)-acetamide]",189 nM
14,"CCn1ccc(C(C)N(Cc2ccccc2C(F)(F)F)C(=O)CNc2cccc3c2CCN(CC2CC2)C3)n1 (racemic) [Example 80, rac-2-(2-Cyclopropylmethyl-1,2,3,4-tetrahydro-isoquinolin-5-ylamino)-N-[1-(1-ethyl-1H-pyrazol-3-yl)-ethyl]-N-(2-trifluoromethyl-benzyl)-acetamide]",47 nM
15,"CCOC(=O)[C@@H]1C[C@H]1CN(Cc1ccccc1C(F)(F)F)C(=O)CNc1cccc2c1CCN(CC1CC1)C2 (racemic) [Example 81, rac-trans-2-{[[2-(2-Cyclopropylmethyl-1,2,3,4-tetrahydro-isoquinolin-5-ylamino)-acetyl]-(2-trifluoromethyl-benzyl)-amino]-methyl}-cyclopropanecarboxylic acid ethyl ester]",126 nM
16,"O=C(CNc1cccc2c1CCN(CC1CC1)C2)N(Cc1ccccc1)C1CCNC1 (racemic) [Example 178, rac-N-Benzyl-2-(2-cyclopropylmethyl-1,2,3,4-tetrahydro-isoquinolin-5-ylamino)-N-pyrrolidin-3-yl-acetamide]",25 nM
17,"CN1CCC(N(Cc2ccccc2)C(=O)CNc2cccc3c2CCN(CC2CC2)C3)C1 (racemic) [Example 180, rac-N-Benzyl-2-(2-cyclopropylmethyl-1,2,3,4-tetrahydro-isoquinolin-5-ylamino)-N-(1-methyl-pyrrolidin-3-yl)-acetamide]",8 nM
18,"CC1c2cccc(NCC(=O)N(CCN(C)C)Cc3ccccc3C(F)(F)F)c2CCN1CC1CC1 (racemic) [Example 211, rac-2-((2-(Cyclopropylmethyl)-1-methyl-1,2,3,4-tetrahydroisoquinolin-5-yl)amino)-N-(2-(dimethylamino)ethyl)-N-(2-(trifluoromethyl)benzyl)acetamide]",2 nM
19,"CC1Cc2c(cccc2NCC(=O)N(CCN(C)C)Cc2ccccc2C(F)(F)F)CN1CC1CC1 (racemic) [Example 212, rac-2-((2-(Cyclopropylmethyl)-3-methyl-1,2,3,4-tetrahydroisoquinolin-5-yl)amino)-N-(2-(dimethylamino)ethyl)-N-(2-(trifluoromethyl)benzyl)acetamide]",6 nM
20,"CC(O)CN(Cc1ccccc1C(F)(F)F)C(=O)CNc1cccc2c1CCN(CC1CC1)C2 (racemic) [Example 240, rac-2-(2-Cyclopropylmethyl-1,2,3,4-tetrahydro-isoquinolin-5-ylamino)-N-(2-hydroxy-propyl)-N-(2-trifluoromethyl-benzyl)-acetamide]",15 nM
21,"O=C(CNc1cccc2c1CCN(CC1CC1)C2)N(Cc1ccccc1C(F)(F)F)CC(O)C(F)(F)F (racemic) [Example 242, rac-2-(2-Cyclopropylmethyl-1,2,3,4-tetrahydro-isoquinolin-5-ylamino)-N-(3,3,3-trifluoro-2-hydroxy-propyl)-N-(2-trifluoromethyl-benzyl)-acetamide]",24 nM
22,"CN(C)CCN(Cc1ncccc1Cl)C(=O)CNc1cccc2c1CCN(C(=O)[C@@H]1C[C@@H]1F)C2 (racemic) [Example 293, rac-N-(3-Chloro-pyridin-2-ylmethyl)-N-(2-dimethylamino-ethyl)-2-[2-((1S*,2S*)-2-fluoro-cyclopropanecarbonyl)-1,2,3,4-tetrahydro-isoquinolin-5-ylamino]-acetamide]",20 nM
23,"O=C(CNc1cccc2c1CCN(C(=O)[C@@H]1C[C@@H]1F)C2)N(CCN1CCC(F)(F)CC1)Cc1ncccc1Cl (racemic) [Example 294, rac-N-(3-Chloro-pyridin-2-ylmethyl)-N-[2-(4,4-difluoro-piperidin-1-yl)-ethyl]-2-[2-((1S*,2S*)-2-fluoro-cyclopropanecarbonyl)-1,2,3,4-tetrahydro-isoquinolin-5-ylamino]-acetamide]",237 nM
24,"CN(C)CCN(Cc1ncccc1Cl)C(=O)/C=C/c1cccc2c1CCN(C(=O)[C@H]1C[C@H]1F)C2 (racemic) [Example 330, rac-(E)-N-(3-Chloro-pyridin-2-ylmethyl)-N-(2-dimethylamino-ethyl)-3-[2-((1R*,2R*)-2-fluoro-cyclopropanecarbonyl)-1,2,3,4-tetrahydro-isoquinolin-5-yl]-acrylamide]",11 nM
